Measured values: US12479827B2, “Heteroaromatic carboxamide derivatives as plasma kallikrein inhibitors” (Boehringer Ingelheim International GmbH, priority 2020, dated 2025)

Experiments:
Human PKK = molecular target: T1, Human PKK (Homo sapiens, UniProt P03952); assay: Inhibition of PKK using an endpoint assay (human PKK); type: biochemical; details: fluorogenic substrate H-Pro-Phe-Arg-AMC, 1 h room temperature, method names human or rat PKK, table does not say which
T1 construct: purchased Enzyme Research Laboratories
T1 sequence (P03952 20-390 limits assumed): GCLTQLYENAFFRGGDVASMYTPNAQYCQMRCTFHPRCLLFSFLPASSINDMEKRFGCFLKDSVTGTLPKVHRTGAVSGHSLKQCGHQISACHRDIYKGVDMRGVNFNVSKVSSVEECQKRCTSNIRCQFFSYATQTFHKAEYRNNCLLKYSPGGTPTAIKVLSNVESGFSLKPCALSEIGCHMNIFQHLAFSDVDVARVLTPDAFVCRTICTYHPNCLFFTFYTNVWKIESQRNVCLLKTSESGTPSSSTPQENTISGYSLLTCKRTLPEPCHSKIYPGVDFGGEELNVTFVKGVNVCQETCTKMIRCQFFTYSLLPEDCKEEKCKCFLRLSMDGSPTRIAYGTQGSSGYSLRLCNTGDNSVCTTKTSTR
T1 sequence (P03952 391-638 limits assumed): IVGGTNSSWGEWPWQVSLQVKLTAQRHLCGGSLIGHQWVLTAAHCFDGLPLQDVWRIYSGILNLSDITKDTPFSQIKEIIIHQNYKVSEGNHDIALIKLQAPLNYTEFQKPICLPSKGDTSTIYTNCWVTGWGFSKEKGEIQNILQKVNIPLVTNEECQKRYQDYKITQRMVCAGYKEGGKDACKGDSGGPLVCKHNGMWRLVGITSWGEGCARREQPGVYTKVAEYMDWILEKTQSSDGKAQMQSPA
Procedure: The ability of compounds of formula (I) to inhibit plasma kallikrein (PKK), Factor XIIa (FXIIa), Factor XIa (FXIa), Factor Xa (FXa), Factor IIa (alpha-thrombin; FIIa), plasmin, trypsin, tissue kallikrein 1 (TK1), Factor VIIa (FVIIa), or FVIIa complexed with Tissue Factor, phospholipids and CaCl2 (FVIIa/TF/PL/CaCl2) is determined using the following biochemical assays in assay buffer (100 mM Tris, 150 mM NaCL, adjusted to a pH of 7.8 with HCl, and containing 0.1% (w/v) BSA and 0.05% (v/v) Tween20) in the presence of 1% (v/v) DMSO:
Subsequently, PPACK II (Calbiochem) is added as a stop solution to achieve a final concentration of 1 μM and fluorescence is measured using an Envision Reader (PerkinElmer) with the wavelength excitation setting of 355 nm and the wavelength emission setting of 460 nm.

[1] = molecular target: T2, PKK in kaolin activated human platelet poor plasma (Homo sapiens, UniProt P03952); assay: Inhibition of PKK in kaolin activated human PPP; type: biochemical; details: 25-750 μg/mL kaolin, global fit, text b200 calls the values IC90;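 note: readout is the rate of fluorogenic substrate cleavage in rfu per min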
T2 construct: Platelet poor plasma (PPP) obtained from human wholeblood; from tissue
T2 sequence (P03952 391-638 limits assumed): as above
T2 sequence (P03952 20-390 limits assumed): as the sequence (P03952 20-390 limits assumed) above
Procedure: Platelet poor plasma (PPP) obtained from human wholeblood, anticoagulated with Na-Citrate, is incubated with various concentrations of the test compound together with either 25, 75, 250, or 750 μg/mL kaolin in assay buffer for 20 min at 37° C. such that for each kaolin dose used a concentration response is obtained for the test compound.

Cn1cnc2c1CC[C@H]2NC(=O)c1cn(Cc2ccc(N3CC4C(C3)C4(F)F)nc2Cl)nn1 (stereo partly drawn) [Example 1, 1-[(2-Chloro-6-{6,6-difluoro-3-azabicyclo[3.1.0]hexan-3-yl}pyridin-3-yl)methyl]-N-[(4R)-1-methyl-1H,4H,5H,6H-cyclopenta[d]imidazol-4-yl]-1H-1,2,3-triazole-4-carboxamide]
IC50 (Human PKK): 1.3 nM | IC50 [1]: 290 nM

COCc1nc(N2CC3C(C2)C3(F)F)ccc1Cn1cc(C(=O)N[C@@H]2CCc3c2ncn3C)cn1 (stereo partly drawn) [Example 2, 1-[(6-{6,6-Difluoro-3-azabicyclo[3.1.0]hexan-3-yl}-2-(methoxymethyl)pyridin-3-yl)methyl]-N-[(4R)-1-methyl-1H,4H,5H,6H-cyclopenta[d]-imidazol-4-yl]-1H-pyrazole-4-carboxamide]
IC50 (Human PKK): 3.1 nM | IC50 [1]: 253 nM

Cn1cnc2c1CC[C@H]2NC(=O)c1cn(Cc2ccc(N3CC4(CC4)C3)nc2Cl)nn1 [Example 5, 1-[(6-{5-Azaspiro[2.3]hexan-5-yl}-2-chloropyridin-3-yl)methyl]-N-[(4R)-1-methyl-1H,4H,5H,6H-cyclo-penta[d]imidazol-4-yl]-1H-1,2,3-triazole-4-carboxamide]
IC50 (Human PKK): 1.1 nM | IC50 [1]: 278 nM

Cn1cnc2c1CC[C@H]2NC(=O)c1cn(Cc2ccc(N3CC4(CC4)C3)nc2Br)nn1 [Example 6, 1-[(6-{5-Azaspiro[2.3]hexan-5-yl}-2-bromopyridin-3-yl)methyl]-N-[(4R)-1-methyl-1H,4H,5H,6H-cyclo-penta[d]imidazol-4-yl]-1H-1,2,3-triazole-4-carboxamide]
IC50 (Human PKK): 0.9 nM | IC50 [1]: 1880 nM

Cn1cnc2c1CC[C@H]2NC(=O)c1cn(Cc2ccc(N3CC4C(C3)C4(F)F)nc2F)cn1 (stereo partly drawn) [Example 7, 1-[(6-{6,6-Difluoro-3-azabicyclo[3.1.0]hexan-3-yl}-2-fluoropyridin-3-yl)methyl]-N-[(4R)-1-methyl-1H,4H,5H,6H-cyclopenta[d]imidazol-4-yl]-1H-imidazole-4-carboxamide]
IC50 (Human PKK): 1.4 nM | IC50 [1]: 151 nM

Cn1cnc2c1CC[C@H]2NC(=O)c1cn(Cc2ccc(N3CC4CC4C3)cn2)nn1 (stereo partly drawn) [Example 8, 1-[(5-{3-Azabicyclo[3.1.0]hexan-3-yl}pyridin-2-yl)methyl]-N-[(4R)-1-methyl-1H,4H,5H,6H-cyclopenta[d]imidazol-4-yl]-1H-1,2,3-triazole-4-carboxamide]
IC50 (Human PKK): 2.3 nM | IC50 [1]: 352 nM

Cn1cnc2c1CC[C@H]2NC(=O)c1cnn(Cc2ccc(N3CC4CC4C3)cn2)c1 (stereo partly drawn) [Example 9, 1-[(5-{3-Azabicyclo[3.1.0]hexan-3-yl}pyridin-2-yl)methyl]-N-[(4R)-1-methyl-1H,4H,5H,6H-cyclopenta[d]imidazol-4-yl]-1H-pyrazole-4-carboxamide]
IC50 (Human PKK): 3.8 nM | IC50 [1]: 603 nM

Cc1nc(N2C[C@@]3(C)C[C@@]3(C)C2)ncc1Cn1cc(C(=O)N[C@@H]2CCc3c2ncn3C)cn1 [Example 225, 1-({2-[(1R,5S)-1,5-Dimethyl-3-azabicyclo[3.1.0]hexan-3-yl]-4-methylpyrimidin-5-yl}methyl)-N-[(4R)-1-methyl-1H,4H,5H,6H-cyclopenta[d]imidazol-4-yl]-1H-pyrazole-4-carboxamide]
IC50 (Human PKK): 232 nM

Cc1nc(N2CC3(CCC3)C2)ncc1Cn1cc(C(=O)N[C@@H]2CCc3c2ncn3C)cn1 [Example 226, 1-[(2-{2-Azaspiro[3.3]heptan-2-yl}-4-methylpyrimidin-5-yl)methyl]-N-[(4R)-1-methyl-1H,4H,5H,6H-cyclopenta[d]imidazol-4-yl]-1H-pyrazole-4-carboxamide]
IC50 (Human PKK): 35.7 nM

Cc1nc(N2CCC3CC3C2)ncc1Cn1cc(C(=O)N[C@@H]2CCc3c2ncn3C)cn1 (stereo partly drawn) [Example 227, 1-[(2-{3-Azabicyclo[4.1.0]heptan-3-yl]-4-methylpyrimidin-5-yl)methyl]-N-[(4R)-1-methyl-1H,4H,5H,6H-cyclopenta[d]imidazol-4-yl]-1H-pyrazole-4-carboxamide]
IC50 (Human PKK): 45.3 nM

Cc1nc(N2CC3C(C2)C3(C)C)ncc1Cn1cc(C(=O)N[C@@H]2CCc3c2ncn3C)cn1 (stereo partly drawn) [Example 228, 1-[(2-{6,6-Dimethyl-3-azabicyclo[3.1.0]hexan-3-yl}-4-methylpyrimidin-5-yl)methyl]-N-[(4R)-1-methyl-1H,4H,5H,6H-cyclopenta[d]imidazol-4-yl]-1H-pyrazole-4-carboxamide]
IC50 (Human PKK): 126 nM

Cc1nc(N2C[C@@H]3[C@@H](C)[C@@H]3C2)ncc1Cn1cc(C(=O)N[C@@H]2CCc3c2ncn3C)cn1 [Example 229, N-[(4R)-1-Methyl-1H,4H,5H,6H-cyclopenta[d]imidazol-4-yl]-1-({4-methyl-2-[(1R,5S,6R)-6-methyl-3-azabicyclo[3.1.0]hexan-3-yl]pyrimidin-5-yl}methyl)-1H-pyrazole-4-carboxamide]
IC50 (Human PKK): 110 nM

Cc1nc(N2CCC3(CC3)C2)ncc1Cn1cc(C(=O)N[C@@H]2CCc3c2ncn3C)cn1 [Example 230, 1-[(2-{5-Azaspiro[2.4]heptan-5-yl}-4-methylpyrimidin-5-yl)methyl]-N-[(4R)-1-methyl-1H,4H,5H,6H-cyclopenta[d]imidazol-4-yl]-1H-pyrazole-4-carboxamide]
IC50 (Human PKK): 53.7 nM

Cc1nc(N2CC3CC(C2)O3)ncc1Cn1cc(C(=O)N[C@@H]2CCc3c2ncn3C)cn1 [Example 231, N-[(4R)-1-Methyl-1H,4H,5H,6H-cyclopenta[d]imidazol-4-yl]-1-[(4-methyl-2-{6-oxa-3-azabicyclo[3.1.1]heptan-3-yl}pyrimidin-5-yl)methyl]-1H-pyrazole-4-carboxamide]
IC50 (Human PKK): 223 nM

Cc1nc(N2CCCC3(CC3)C2)ncc1Cn1cc(C(=O)N[C@@H]2CCc3c2ncn3C)cn1 [Example 232, 1-[(2-{5-Azaspiro[2.5]octan-5-yl}-4-methylpyrimidin-5-yl)methyl]-N-[(4R)-1-methyl-1H,4H,5H,6H-cyclopenta[d]imidazol-4-yl]-1H-pyrazole-4-carboxamide]
IC50 (Human PKK): 512 nM

COC1C2CC1CN(c1ncc(Cn3cc(C(=O)N[C@@H]4CCc5c4ncn5C)cn3)c(C)n1)C2 (stereo partly drawn) [Example 233, 1-[(2-{6-Methoxy-3-azabicyclo[3.1.1]heptan-3-yl}-4-methylpyrimidin-5-yl)methyl]-N-[(4R)-1-methyl-1H,4H,5H,6H-cyclopenta[d]imidazol-4-yl]-1H-pyrazole-4-carboxamide]
IC50 (Human PKK): 81.4 nM

CO[C@H]1[C@@H]2CC[C@H]1CN(c1ncc(Cn3cc(C(=O)N[C@@H]4CCc5c4ncn5C)cn3)c(C)n1)C2 [Example 234, 1-({2-[(1R,5S,8R)-8-Methoxy-3-azabicyclo[3.2.1]octan-3-yl]-4-methylpyrimidin-5-yl}methyl)-N-[(4R)-1-methyl-1H,4H,5H,6H-cyclopenta[d]imidazol-4-yl]-1H-pyrazole-4-carboxamide]
IC50 (Human PKK): 350 nM

Cc1nc(N2C[C@@H]3[C@@H](CO)[C@@H]3C2)ncc1Cn1cc(C(=O)N[C@@H]2CCc3c2ncn3C)cn1 [Example 235, 1-({2-[(1R,5S,6S)-6-(Hydroxymethyl)-3-azabicyclo[3.1.0]hexan-3-yl]-4-methylpyrimidin-5-yl}methyl)-N-[(4R)-1-methyl-1H,4H,5H,6H-cyclopenta[d]imidazol-4-yl]-1H-pyrazole-4-carboxamide]
IC50 (Human PKK): 214 nM

Cc1nc(N2C[C@@H]3[C@@H](O)[C@@H]3C2)ncc1Cn1cc(C(=O)N[C@@H]2CCc3c2ncn3C)cn1 [Example 236, 1-({2-[(1R,5S,6S)-6-Hydroxy-3-azabicyclo[3.1.0]hexan-3-yl]-4-methylpyrimidin-5-yl}methyl)-N-[(4R)-1-methyl-1H,4H,5H,6H-cyclopenta[d]imidazol-4-yl]-1H-pyrazole-4-carboxamide]
IC50 (Human PKK): 222 nM

Cc1nc(N2CCC3(CC2)CC3)ncc1Cn1cc(C(=O)N[C@@H]2CCc3c2ncn3C)cn1 [Example 237, 1-[(2-{6-Azaspiro[2.5]octan-6-yl}-4-methylpyrimidin-5-yl)methyl]-N-[(4R)-1-methyl-1H,4H,5H,6H-cyclopenta[d]imidazol-4-yl]-1H-pyrazole-4-carboxamide]
IC50 (Human PKK): 111 nM

Cc1nc(N2CC3CCC3C2)ncc1Cn1cc(C(=O)N[C@@H]2CCc3c2ncn3C)cn1 (stereo partly drawn) [Example 238, 1-[(2-{3-Azabicyclo[3.2.0]heptan-3-yl}-4-methylpyrimidin-5-yl)methyl]-N-[(4R)-1-methyl-1H,4H,5H,6H-cyclopenta[d]imidazol-4-yl]-1H-pyrazole-4-carboxamide]
IC50 (Human PKK): 123 nM

Cc1nc(N2CC3CCCC3C2)ncc1Cn1cc(C(=O)N[C@@H]2CCc3c2ncn3C)cn1 (stereo partly drawn) [Example 239, N-[(4R)-1-Methyl-1H,4H,5H,6H-cyclopenta[d]imidazol-4-yl]-1-[(4-methyl-2-{octahydrocyclopenta[c]pyrrol-2-yl}pyrimidin-5-yl)methyl]-1H-pyrazole-4-carboxamide]
IC50 (Human PKK): 123 nM

Cc1nc(N2CCC3(CCC3)C2)ncc1Cn1cc(C(=O)N[C@@H]2CCc3c2ncn3C)cn1 [Example 240, 1-[(2-{6-Azaspiro[3.4]octan-6-yl}-4-methylpyrimidin-5-yl)methyl]-N-[(4R)-1-methyl-1H,4H,5H,6H-cyclopenta[d]imidazol-4-yl]-1H-pyrazole-4-carboxamide]
IC50 (Human PKK): 52 nM
